Values quoted from earlier work, collected in paper PMC13092032, “Unlocking the potential of alkaline polymethacrylates via ionic crosslinking in amorphous solid dispersions” (International Journal of Pharmaceutics: X, 2026).

Details: Table 2; no method or source printed

SMILES	Log P
O=C1Nc2ccc(Cl)cc2[C@@](C#CC2CC2)(C(F)(F)F)O1 [Efavirenz]	4.7
Cc1ccc(-c2cc(C(F)(F)F)nn2-c2ccc(S(N)(=O)=O)cc2)cc1 [Celecoxib]	3.5
